Results reported in PMC4148174 (Biochemical Journal, 2014).
Like-named read-outs stand apart in the source and are kept apart here.

Tests used:
[1] = system: T1, isolated F1 domain of ATPase; test: ATP hydrolysis by the isolated F1 domain; type: biochemical, bovine; details: at the SMP IC50 values
T1 construct: from tissue; host or cells: bovine mitochondria
Method: Complex I was prepared from Bos taurus (bovine) heart mitochondria, Pichia pastoris and Escherichia coli, as described previously. SMPs (submitochondrial particles) and mitochondrial membranes were prepared from bovine heart mitochondria. […] Mitochondria were isolated from rat liver by the method of Chappell and Hansford. F1FO-ATP synthase and the F1 domain were isolated from bovine mitochondria as described previously using a HiLoad Superdex 200-PG column and omitting azide and 2-mercaptoethanol.

ATP synthase = system: T2, ATP synthase; test: Succinate-driven ATP synthesis by SMPs; type: biochemical, bovine; details: 15 mM buformin, 100 mM metformin; others up to concentrations above IC50 for ATP hydrolysis; corrected for succinate oxidation
T2 construct: from tissue; host or cells: SMPs from bovine heart mitochondria
Text: Data points are means±S.E.M., n=3, as a percentage of ATP production in the absence of biguanide. […] (●).

[2] = system: Hep G2 hepatocarcinoma cells; test: Rotenone-sensitive OCR and ECAR of Hep G2 cells (Seahorse); type: cell-based, human; details: for effect on rotenone-sensitive OCR or ECAR: concentration equal to complex I IC50/10, 6 h of treatment; for IC50: Hep G2 cells, 6 h exposure, read-out: cellular IC50, rotenone-sensitive OCR
Method: OCRs (oxygen consumption rates) and ECARs (extracellular acidification rates) were measured in a Seahorse extracellular flux analyser; 200 nM rotenone was used to inhibit complex I where stated. To calculate the normalized rotenone-sensitive OCR rates, the rotenone-insensitive rates (determined at the end of the experiment) were subtracted and the traces normalized to 100% before biguanide addition. ECAR data were normalized to 100% before biguanide addition. […] Isolated rat liver mitochondria were plated at 20 μg per well in the same buffer but without PMP. They were adhered to the plate by centrifugation at 2000 g for 20 min at 4°C and measurements performed and normalized (after temperature equilibration) as for permeabilized cells but at 32°C.
(§1) Biguanides are positively charged so they are expected to accumulate in the mitochondria of cells in response to the potential difference across the inner membrane (the potential difference is the ‘charge’ component of the protonmotive force). Each 60 mV of potential difference drives the concentration of the positive ion to 10-times higher inside the mitochondrion than outside. For a typical potential difference of 120–150 mV the concentration inside the mitochondrion could therefore be 100 to 300-times higher than outside. […] The OCRs were normalized to their values before biguanide addition, and monitored throughout the experiment; rotenone-insensitive rates were subtracted, and all rates after 6 h compared with a biguanide-free control.

complex III = test: Complex III inhibition (succinate:cytochrome c oxidoreduction); details: read-out: IC50 on complex III
[3] = biological target: T3, complex I (NADH:ubiquinone oxidoreductase); test: NADH:decylubiquinone oxidoreduction by isolated complex I; type: biochemical, Bos taurus (bovine); details: for IC50: isolated bovine complex I, 32°C, pH 7.2, 200 μM NADH, 200 μM decylubiquinone, 95% confidence intervals; for inhibition of complex I catalysis at extrapolated mitochondrial concentration: 10 mM metformin, 200 μM phenformin in mitochondria
T3 construct: from tissue; host or cells: bovine heart mitochondria
Method: Catalysis was initiated by the addition of NADH, following a 2 min pre-incubation, and rates measured as the linear regression of the maximal rate (discarding any initial lag phases). […] Control experiments included NaCl (to maintain the ionic strength) or DMSO.
Experimental values are reported as means±S.E.M. for small sample sizes or as means±S.D. for large sample sizes with only technical error sources. […] Comparisons between samples are marked *P<0.05, **P<0.01 and ****P<0.0001 as determined using an unpaired two-tailed Students t test. Differences between measurements with P>0.05 were considered not significant.

complex I flavin = system: T4, complex I flavin; test: H2O2 production (NADH:O2 oxidoreduction) by isolated complex I; type: biochemical, bovine; details: dose-response
T4 construct: from tissue; host or cells: bovine heart mitochondria (from context)
Method: (§2) NADH:decylubiquinone oxidoreduction was measured using 200 μM NADH and 200 μM decylubiquinone, in 0.075% soya bean asolectin (Avanti Polar Lipids) and 0.075% CHAPS (Merck Chemicals) and quantified by the absorbance of NADH (ε340–380=4.81 mM^−1·cm^−1). Catalysis was initiated by the addition of NADH, following a 2 min pre-incubation, and rates measured as the linear regression of the maximal rate (discarding any initial lag phases). […] Initial rates for the NADH:FeCN (ferricyanide), NADH:HAR [hexaammineruthenium(III)] and NADH:paraquat reactions were measured in 100 μM NADH with 1 mM FeCN (ε420–500=1 mM^−1·cm^−1), 3.5 mM HAR or 200 μM paraquat (ε340–380=4.81 mM^−1·cm^−1). H2O2 formation was followed in 30 μM NADH as the catalase-sensitive horseradish peroxidase-dependent oxidation of 10 μM Amplex Red to resorufin (ε557–620=51.6 mM^−1·cm^−1), with 2 units/ml superoxide dismutase, or by monitoring NADH oxidation. Metformin (Cambridge Bioscience) phenformin and buformin (Santa Cruz Biotechnology) were added from aqueous stock solutions, and cycloguanil (Santa Cruz Biotechnology) and proguanil (Sigma–Aldrich) were in DMSO. Control experiments included NaCl (to maintain the ionic strength) or DMSO.

complex I [4] = test: NADH:decylubiquinone oxidoreduction by isolated complex I from yeast; type: biochemical, Pichia pastoris; details: complex I from the yeast P. pastoris; read-out: IC50, inhibition of complex I
Method: (§3) Complex I was prepared from Bos taurus (bovine) heart mitochondria, Pichia pastoris and Escherichia coli, as described previously. SMPs (submitochondrial particles) and mitochondrial membranes were prepared from bovine heart mitochondria. Complex IV was a by-product from the preparation of complex I; it elutes from the Q-Sepharose column at ~250 mM NaCl. Mitochondria were isolated from rat liver by the method of Chappell and Hansford. F1FO-ATP synthase and the F1 domain were isolated from bovine mitochondria as described previously using a HiLoad Superdex 200-PG column and omitting azide and 2-mercaptoethanol.
(§4) NADH:decylubiquinone oxidoreduction was measured using 200 μM NADH and 200 μM decylubiquinone, in 0.075% soya bean asolectin (Avanti Polar Lipids) and 0.075% CHAPS (Merck Chemicals) and quantified by the absorbance of NADH (ε340–380=4.81 mM^−1·cm^−1). Catalysis was initiated by the addition of NADH, following a 2 min pre-incubation, and rates measured as the linear regression of the maximal rate (discarding any initial lag phases). […] Initial rates for the NADH:FeCN (ferricyanide), NADH:HAR [hexaammineruthenium(III)] and NADH:paraquat reactions were measured in 100 μM NADH with 1 mM FeCN (ε420–500=1 mM^−1·cm^−1), 3.5 mM HAR or 200 μM paraquat (ε340–380=4.81 mM^−1·cm^−1). […]

complex I [5] = test: NADH:decylubiquinone oxidoreduction by isolated complex I from bacterium; type: biochemical, Escherichia coli; details: read-out: IC50, inhibition of complex I; complex I from the bacterium E. coli
Method: as §3, §4

complex I [6] = test: NADH:FeCN oxidoreduction by complex I from P. pastoris; type: biochemical, Pichia pastoris; details: 200 mM metformin
Method: as §2

complex I [7] = test: NADH:FeCN oxidoreduction by complex I from E. coli; type: biochemical, Escherichia coli; details: 200 mM metformin
Method: as §2

complex I flavin site = system: T5, complex I flavin site; test: NADH-dependence of NADH:FeCN catalysis by isolated bovine complex I; type: biochemical; details: 100 mM metformin
T5 construct: from tissue; host or cells: bovine heart mitochondria

[8] = system: isolated rat skeletal muscle mitochondria; test: H2O2 production by isolated rat skeletal muscle mitochondria (resorufin fluorescence); details: glutamate and pyruvate, ATP and rotenone
Text: . However, these extramitochondrial concentrations are very high and we are unable to control the intramitochondrial concentration or conditions, so the results are not quantitatively meaningful. […]

complex I in SMPs = system: T6, complex I in SMPs; test: NADH oxidation by SMPs; type: biochemical, bovine; details: 100 mM metformin added 10 min after initiation by 200 μM NADH
T6 construct: from tissue; host or cells: SMPs from bovine heart mitochondria

143B osteosarcoma cells = test: Rotenone-sensitive OCR of 143B cells (Seahorse); type: cell-based, human; details: 6 h exposure, read-out: cellular IC50, rotenone-sensitive OCR
Method: Cells [143B (cell line 8303 from the A.T.C.C.) and Hep G2 (cell line 85011430 from The Health Protection Agency)] were grown on DMEM (Dulbecco's modified Eagle's medium) supplemented with 10% FBS (Thermo Fisher Scientific) and 100 units/ml penicillin and 100 μg/ml streptomycin at 37°C in 5% CO2. Per well, 3×10^4 or 1.5×10^4 cells were plated into XF24 or XF96 (Seahorse Bioscience) plates respectively, and incubated for 12 h at 37°C in 5% CO2. The medium was exchanged for assay buffer containing DMEM, 4.5 g/l glucose, 1 mM pyruvate, 32 mM NaCl, 2 mM GlutaMAX, 15 mg/l Phenol Red and 20 mM Hepes (pH 7.4) and the cells placed in a CO2-free incubator at 37°C for 60 min. OCRs (oxygen consumption rates) and ECARs (extracellular acidification rates) were measured in a Seahorse extracellular flux analyser; 200 nM rotenone was used to inhibit complex I where stated. To calculate the normalized rotenone-sensitive OCR rates, the rotenone-insensitive rates (determined at the end of the experiment) were subtracted and the traces normalized to 100% before biguanide addition. ECAR data were normalized to 100% before biguanide addition. For the permeabilized cell experiments, cells were seeded at 3.5×10^3 per well and incubated for 62 h at 37°C in 5% CO2. The medium was exchanged for assay buffer containing 3 nM plasma membrane permeabilizer ‘PMP’ (Seahorse Biosciences), 10 mM pyruvate, 10 mM malate, 220 mM mannitol, 70 mM sucrose, 10 mM KH2PO4, 5 mM MgCl, 1 mM EGTA, 0.2% fatty-acid-free BSA and 2 mM Hepes (pH 7.4) at 37°C. Cells were incubated for 15 min and a baseline was recorded for normalization, then the test compounds were added. […]
Biguanides are positively charged so they are expected to accumulate in the mitochondria of cells in response to the potential difference across the inner membrane (the potential difference is the ‘charge’ component of the protonmotive force). […] The OCRs were normalized to their values before biguanide addition, and monitored throughout the experiment; rotenone-insensitive rates were subtracted, and all rates after 6 h compared with a biguanide-free control. […]

[9] = Typical blood serum levels; type: in vivo; details: 1000-fold accumulation at combined membrane potentials of 180 mV
[10] = system: immunoprecipitated complex I; design: method as in PMID 18817800; details: previous data; cited from earlier work
[11] = design: method as in PMID 12889529; details: cited from earlier work
143B and Hep G2 cells = test: Accumulation into mitochondria of cultured cells inferred from complex I inhibition; type: cell-based, human; details: 6 h
Text: as §1, with “control. […]. […] […].” for “control.”

F1FO-ATPase = biological target: T7, F1FO-ATPase; test: ATP hydrolysis by F1FO-ATPase in SMPs (coupled assay); type: biochemical; details: bovine SMPs
T7 construct: from tissue; host or cells: SMPs from bovine heart mitochondria

[12] = biological target: T8, isolated ATPase (F1FO-ATP synthase); test: ATP hydrolysis by isolated intact ATPase; type: biochemical, bovine; details: isolated intact enzyme
T8 construct: from tissue; host or cells: bovine mitochondria
Method: as §3

| Compound | inhibition of ATP hydrolysis by the isolated F1 domain [1] | effect on succinate-driven ATP synthesis (ATP synthase) | effect on rotenone-sensitive OCR or ECAR [2] | IC50 [3] [µM] | H2O2 production rate maximum (complex I flavin) [%] | inhibition of complex I catalysis at extrapolated mitochondrial concentration [3] | IC50 (143B osteosarcoma cells; Homo sapiens, 143B, 6 h) [µM] | mitochondrial concentration extrapolated from serum [9] [mM] | serum concentration [11] | also measured |
| --- | --- | --- | --- | --- | --- | --- | --- | --- | --- | --- |
| CCCCNC(=N)NC(=N)N [buformin] | 74±3% | No inhibition |  |  |  |  |  |  |  |  |
| CC1(C)N=C(N)N=C(N)N1c1ccc(Cl)cc1 [cycloguanil] | no significant inhibition | neither cycloguanil or proguanil affect ATP synthesis | neither proguanil nor cycloguanil exhibited any substantial effect |  |  |  |  |  |  | IC50 (complex III): 2480 ± 210 µM |
| N=C(N)N [guanidinium] |  |  |  | 25800 ± 3900 | 386±34 |  |  |  |  |  |
| CN(C)C(=N)N=C(N)N [metformin] |  | No inhibition |  | 19400 ± 1400 | 338±41 | ~ 25% | 237 ± 13 | 10 | ~ 10 μM | mode of inhibition of complex I ([3]; Michaelis-Menten analysis towards decylubiquinone): reversible non-competitive inhibitor; IC50 (complex I [4]): 22600 ± 4300 µM; IC50 (complex I [5]): 60700 ± 8500 µM; NADH:FeCN reaction rate (stimulation) (complex I [6]): 166±1%; NADH:FeCN reaction rate (stimulation) (complex I [7]): 144±2%; increase of the dissociation constant for NADH to the reduced flavin (complex I flavin site): ~ 20 times; KNADHRed (dissociation constant for NADH binding to the reduced flavin) (complex I flavin site; control 11 μM, data fit): 181 µM; stimulation of H2O2 production rate ([8]; 50 mM metformin): 270±34%; stimulation of H2O2 production rate ([8]; 100 mM metformin): 360±35%; time for inhibition to attain the same level when added during catalysis (complex I in SMPs): more than 30 min; IC50 (143B osteosarcoma cells): 240 ± 10 µM; IC50 [2]: 330 ± 20 µM; IC50 ([2]; Homo sapiens, HepG2, 6 h): 325 ± 25 µM; IC50 [10]: 66000 µM |
| [H]/N=C(/N)N/C(=N/[H])NCCc1ccccc1 [phenformin] | 32±7.5% | inhibition of synthesis is observed at higher concentrations |  |  |  | ~ 25% | 3.81 ± 1.12 | 0.2 | ~ 200 nM | IC50 ([2]; Homo sapiens, HepG2): 3.8 ± 0.38 µM; time for uptake to reach completion ([2]; concentration equal to complex I IC50/10 (0.04 mM phenformin)): approximately 6 h; accumulation (isolated complex I IC50 versus cellular IC50) (143B and Hep G2 cells): 120 fold |
| [H]/N=C(\N/C(=N/[H])Nc1ccc(Cl)cc1)NC(C)C [proguanil] | no significant inhibition | neither cycloguanil or proguanil affect ATP synthesis | neither proguanil nor cycloguanil exhibited any substantial effect |  |  |  |  |  |  | IC50 (F1FO-ATPase): 6.8 ± 0.7 µM; IC50 [12]: 0.67 ± 0.1 µM |
